From patent US12403079B2, “Ingredient in sunscreen compositions” (MAGIC BLUE, LLC, priority 2019, dated 2025)

Assays:
[1] = test system: primary human skin cells (skin fibroblast cells or primary keratinocytes); test: in vitro 2D skin model, cellular ROS levels by MitoSOX; format: cell-based; details: 100 nM and 1 μM, 0.1% DMSO solvent control
Text: Methylene Blue: [7-(dimethylamino) phenthiazin-3-ylldene]-dImethylazinium chloride, or more simply as methylthloninium chloride. Also included are all hydrates, particularly, the hydrate or trihydrate of Methylene Blue as well as all dermatologically acceptable salts thereof, such as the chloride salt. All forms of Methylene Blue are also abbreviated herein as MB and are to be understood as such. about: as used herein means±10%. […] Examples of conventional sunscreen excipients or adjuvants, include, for example, xanthan gums, corn starch, film-forming polymers and/or copolymers, glycerin, emulsifiers, moisturizing agents and cosmetic ingredients. Further examples of conventional sunscreen composition excipients or adjuvants are described in U.S. Pat. Nos. 9,149,664; 8,128,913; 9,050,475 and 6,800,274, all of which are incorporated herein by reference in the entirety. […] SPF: means a “sun protection factor” defined at 21 USC 352.1 et seq. using the term MED, which in turn means Minimal Erythema Dose, which is defined as the quantity of erythema-effective energy (expressed in Joules per square meter) required to produce the first perceptible redness reaction with clearly defined borders. […]

[2] = scale of 1-10 (with 10 being the worst); cited from earlier work
[3] = test system: primary human skin cells (skin fibroblast cells or primary keratinocytes); test: in vitro 2D skin model, cell proliferation; format: cell-based; details: after 13 days; for cell proliferation: 100 nM and 1 μM, relative to control treatment
Text: Methylene Blue: [7-(dimethylamino) phenthiazin-3-ylldene]-dImethylazinium chloride, or more simply as methylthloninium chloride. Also included are all hydrates, particularly, the hydrate or trihydrate of Methylene Blue as well as all dermatologically acceptable salts thereof, such as the chloride salt. All forms of Methylene Blue are also abbreviated herein as MB and are to be understood as such. about: as used herein means±10%. […] Examples of conventional sunscreen excipients or adjuvants, include, for example, xanthan gums, corn starch, film-forming polymers and/or copolymers, glycerin, emulsifiers, moisturizing agents and cosmetic ingredients. Further examples of conventional sunscreen composition excipients or adjuvants are described in U.S. Pat. Nos. 9,149,664; 8,128,913; 9,050,475 and 6,800,274, all of which are incorporated herein by reference in the entirety. The present invention specifically avoids the inclusion of Oxybenzone and/or Octinoxate in the aforementioned U.S. patents which are used as UVA and/or UVB absorbers, and uses instead, Methylene Blue or any of the hydrates or dermatologically-acceptable salts thereof. Further, it is explicitly contemplated that conventional inorganic compounds, such as zinc oxide and/or titanium oxide, for example, may be used in formulating the sunscreen composition of the present invention. Also, polymers and/or copolymers that are conventionally used as sunscreen stabilizer emollients, such as polyester-8, may also be used in the present sunscreen formulations. Dermatologically-acceptable salts of MB: includes all salts recognized as safe for application to human skin, but generally, the chloride and/or hydrochloride salts are preferred. In vitro 2D skin test: This test is described in by Xiong, et al. in Scientific Reports 7, Article number: 2475 (2017), using primary human skin cells (skin fibroblast cells or primary keratinocytes). Sunscreen agents excluded from the present invention: the conventional sunscreen compounds Oxybenzone and Octinoxate are explicitly excluded from this invention. However, other conventional FDA-approved UVA and UVB absorbers may be used in combination with MB, its hydrates or salts in the present invention. SPF: means a “sun protection factor” defined at 21 USC 352.1 et seq. using the term MED, which in turn means Minimal Erythema Dose, which is defined as the quantity of erythema-effective energy (expressed in Joules per square meter) required to produce the first perceptible redness reaction with clearly defined borders. […]

human keratinocyte cells = test: cell death of keratinocytes after harsh UVB irradiation; format: cell-based; details: 5 days, versus control human keratinocyte cells
[4] = spectrophotometric UV absorption of dilute solutions; format: physicochemical; details: 1 mM, MB versus BP-3
Description: In this example, the absorption characteristics based on spectrophotometric analysis of various dilute solutions of each of MB and oxybenzone (BP-3) were measured and then compared. The solution concentrations for each of MB and BP-3 were 100 μM and 1 mM.

Umbrella xenia = test: soft coral exposure in seawater for one week; format: in vivo; details: 0.5 and 1.0 μM in seawater
Text: Samples of Umbrella xenia were placed in individual containers filled with seawater plus any one of MB or Oxybenzone or Octinoxate for one week. All of the containers were otherwise under the exact same temperature, lighting and water flow conditions. Separate containers were used for both “Control” (nothing added) and DMSO, also added in the same two concentrations specified below for MB, Oxybenzone and Octinoxate.

human skin fibroblasts [5] = test: gamma H2AX levels (DNA double strand breakage) after UVB exposure; format: cell-based; details: 24 hours after UVB exposure, 100 nM pre-treatment; control group doubled
Description: (§1) In this example, the protection ability of MB against UVB radiation was measured. […] Here, a preliminary study was conducted in which human skin fibroblasts were pre-treated with MB at 100 nM concentration for two weeks and then exposed to 0, 5, 10 and 20 seconds of UVB radiation at 1100 mW/cm^2.
Specifically, the histone H2AX Is phosphorylated to a gamma form (gamma H2AX) upon DNA double strand breakage and levels of gamma H2AX positively correlate with the presence of DNA breaks, which are commonly generated by UVB radiation.

human skin fibroblasts [6] = test: recovery of MB-pretreated skin fibroblasts after UVB radiation (cell viability, survival); format: cell-based; details: 100 nM pre-treatment for two weeks
Description: as §1, with “mW/cm^2. In this preliminary study, both groups, i.e., MB-exposed skin cells and the control group, were exposed to the same amount of UVB radiation.” for “mW/cm^2.”

| SMILES | cellular reactive oxygen species (ROS) levels by MitoSOX [1] | EWG hazard score [2] | cell proliferation [3] | rescue of cell death after harsh UVB irradiation (FIG. 6) (human keratinocyte cells) | protection against UVB radiation (absorption) [4] | effects on soft corals (Umbrella xenia) | levels of gamma H2AX (human skin fibroblasts [5]) | recovery after UVB radiation (cell viability) (human skin fibroblasts [6]; UVB 0-20 seconds at 1100 mW/cm^2, five days recovery, versus control group) | survival after high dosage-UVB radiation (imaging analysis) (human skin fibroblasts [6]; versus control samples) | cell number reading (FIG. 1) ([3]; 100 nM) | cell number reading (FIG. 1) ([3]; 1 μM) |
| --- | --- | --- | --- | --- | --- | --- | --- | --- | --- | --- | --- |
| COc1ccc(C(=O)c2ccccc2)c(O)c1 [BP-3] | elevated ROS levels | 8 | no changes in growth |  |  |  |  |  |  |  |  |
| CN(C)c1ccc2nc3ccc(=[N+](C)C)cc-3sc2c1 [MB, [7-(dimethylamino)phenthiazin-3-ylldene]-dImethylazinium chloride] | dosage-dependent reduction in ROS |  | increase in cell proliferation | partially rescue cell death | superior protection against UVB radiation | No adverse effects | reduced levels of gamma H2AX | significantly superior recovery | superior survival | greatest cell number reading | somewhat less |
